Read-outs that look alike come from different tables or passages of the source.
Assays:
A431 cells (WT EGFR) = assay: Cell proliferation (CellTiter Glo, 72 hr) in A431 cells; format: cell-based; settings: Homo sapiens
Protocol: (§1) A431 human epidermoid carcinoma, H1975 human NSCLC and HCC827 human NSCLC adenocarcinoma cells were obtained from the American Type Culture Center (Manassas, Va.). A431 cells were grown in DMEM (Invitrogen, Carlsbad, Calif.) supplemented with 10% FBS (HyClone, South Logan, Utah) and 1% Penicillin-Streptomycin (P/S, Lonza, Walkersville, Md.).
(§2) Cells were plated in Growth Media supplemented with 5% FBS and 1% P/S at a density of 3,000 cells per well in 96 well tissue culture plates (Corning). […] Growth inhibition (GI50) values were determined by Graph Pad Prism.

[1] = tested on: H1975 cells (EGFR L858R/T790M); assay: Cell proliferation (CellTiter Glo, 72 hr) in H1975 cells; format: cell-based, human; settings: Homo sapiens, read-out: H1975 GI50
Protocol: as §1, §2

[2] = tested on: HCC827 cells (EGFR delE746-A750); assay: Cell proliferation (CellTiter Glo, 72 hr) in HCC827 cells; format: cell-based, human; settings: Homo sapiens, read-out: HCC827 GI50
Protocol: as §1, §2

[3] = molecular target: EGFR double mutation L858R/T790M (H1975 cells) (Homo sapiens (Human), UniProt P00533, L858R/T790M); assay: Phospho-EGFR signaling (immunoblotting, 1 hr) in H1975 cells; format: cell-based; settings: signaling EC50 WT (A431) / H1975
Protocol: as §1
All primary antibodies were obtained from Cell Signaling (Danvers, Mass.) and used at 1:1000. Secondary antibodies were used at 1:10,000. Goat anti-mouse IgG IRDye 800CW antibody was obtained from LiCor Biosciences (Lincoln, Nebr.) and goat anti-rabbit IgG Alexa Fluor 680 was obtained from Invitrogen.
Cells were grown in 12-well plates (Corning, Coring, N.Y.) to 90% confluence and then incubated in low-serum (0.1% FBS) media for 16-18 hr. […] A431 cells were then stimulated with 50 ng/ml EGF (Peprotech, Rocky Hill, N.J.) for 15 min. After treatment, cell monolayers were washed with cold PBS (Invitrogen) and immediately lysed by scrapping into 60 uL cold Cell Extraction Buffer (Invitrogen) supplemented with Complete Protease inhibitors (Roche, Indianapolis, Ind.) and PhosphoSTOP (Roche) phosphatase inhibitors.
Phospho-protein signals were quantitated using Odyssey Infrared Imaging (Li-Cor Biosciences).
To assess phosphor-EGFR signaling, blots were probed with rabbit anti-Phospho-EGFR (Y1068) and mouse total anti-EGFR antibodies. Phospho-EGFR signal was normalized to total EGFR expression for each sample. […] Normalized data was fitted using a sigmoidal curve analysis program (Graph Pad Prism version 5) with variable Hill slope to determine the EC50 values.

[4] = A-431, A431 cells, 72 hr, read-out: WT EGFR GI50

Row | SMILES | GI50 (A431 cells (WT EGFR); [4]) | GI50 ([1]; NCI-H1975, H1975 cells, 72 hr) | GI50 ([2]; HCC827 cells, 72 hr) | Ratio WT/mutant (H1975) [3] | GI50 (A431 cells (WT EGFR); A-431, 72 h, read-out: WT EGFR GI50) | GI50 ([1]; NCI-H1975, 72 h) | GI50 ([2]; HCC827, 72 h) | GI50 (A431 cells (WT EGFR); A-431, read-out: Comparative GI50 Values, A431)
1 | C=CC(=O)Nc1cccc(Oc2nc(Nc3ccc(N4CCOCC4)cc3OC)ncc2C(F)(F)F)c1 [Compound I-1, N-(3-(2-(2-methoxy-4-morpholinophenylamino)-5-(trifluoromethyl)pyrimidin-4-yloxy)phenyl)acrylamide] | > 1 µM | 0.01 to 0.1 µM | 0.01 to 0.1 µM | >50 | – | – | – | –
2 | C=CC(=O)Nc1cccc(Oc2nc(Nc3ccc(N4CCN(C(=O)CO)CC4)cc3OC)ncc2Cl)c1 [Compound I-3, N-(3-(5-chloro-2-(4-(4-(2-hydroxyacetyl)piperazin-1-yl)-2-methoxyphenylamino)pyrimidin-4-yloxy)phenyl)acrylamide] | > 1 µM | 0.1 to 0.5 µM | 0.01 to 0.1 µM | >5 | – | – | – | –
3 | C=CC(=O)Nc1cccc(Oc2nc(Nc3ccc(N4CCOCC4)cc3OC)ncc2Cl)c1 [Compound I-5, N-(3-(5-chloro-2-(2-methoxy-4-morpholinophenylamino)pyrimidin-4-yloxy)phenyl)acrylamide] | > 1 µM | 0.1 to 0.5 µM | 0.01 to 0.1 µM | >30 | – | – | – | –
4 | C=CC(=O)Nc1cccc(Nc2nc(Nc3ccc(N4CCN(C(=O)CO)CC4)cc3OC)ncc2C(F)(F)F)c1 [Compound I-6, N-(3-(2-(4-(4-(2-hydroxyacetyl)piperazin-1-yl)-2-methoxyphenylamino)-5-(trifluoromethyl)pyrimidin-4-ylamino)phenyl)acrylamide] | 0.5 to 1 µM | 0.01 to 0.1 µM | 0.01 to 0.1 µM | >20 | – | – | – | –
5 | C=CC(=O)Nc1cccc(Nc2nc(Nc3ccc(N4CCCN(C(C)=O)CC4)cc3OC)ncc2C(F)(F)F)c1 [Compound I-7, N-(3-(2-(4-(4-acetyl-1,4-diazepan-1-yl)-2-methoxyphenylamino)-5-(trifluoromethyl)pyrimidin-4-ylamino)phenyl)acrylamide] | > 1 µM | 0.1 to 0.5 µM | 0.1 to 0.5 µM | >5 | – | – | – | –
6 | C=CC(=O)Nc1cccc(Nc2nc(Nc3ccc(N4CCN(C(C)=O)CC4)cc3OC)ncc2Cl)c1 [Compound I-8, N-(3-(2-(4-(4-acetylpiperazin-1-yl)-2-methoxyphenylamino)-5-chloropyrimidin-4-ylamino)phenyl)acrylamide] | 0.5 to 1 µM | 0.1 to 0.5 µM | 0.01 to 0.1 µM | >1 | – | – | – | –
7 | C=CC(=O)Nc1cccc(Oc2nc(Nc3ccc(N4CCN(C(C)=O)CC4)cc3OC)ncc2Cl)c1 [Compound I-9, N-(3-(2-(4-(4-acetylpiperazin-1-yl)-2-methoxyphenylamino)-5-chloropyrimidin-4-yloxy)phenyl)acrylamide] | > 1 µM | 0.1 to 0.5 µM | 0.01 to 0.1 µM | – | – | – | – | –
8 | C=CC(=O)Nc1cccc(Oc2nc(Nc3ccc(N4CCOCC4)cc3OC(F)F)ncc2C(F)(F)F)c1 [Compound I-13, N-(3-(2-(2-(difluoromethoxy)-4-morpholinophenylamino)-5-(trifluoromethyl)pyrimidin-4-yloxy)phenyl)acrylamide] | > 1 µM | 0.1 to 0.5 µM | 0.01 to 0.1 µM | – | – | – | – | –
9 | C=CC(=O)Nc1cccc(Oc2nc(Nc3ccc(N4CCN(C(=O)OC(C)(C)C)CC4)cc3OCC)ncc2Cl)c1 [Compound I-18, tert-butyl 4-(4-(4-(3-acrylamidophenoxy)-5-chloropyrimidin-2-ylamino)-3-ethoxyphenyl)piperazine-1-carboxylate] | > 1 µM | 0.5 to 1 µM | 0.1 to 0.5 µM | – | – | – | – | –
10 | C=CC(=O)Nc1cccc(Nc2nc(Nc3ccc(N4CCCN(C(=O)C(F)(F)F)CC4)cc3OC)ncc2C(F)(F)F)c1 [Compound I-19, N-(3-(2-(2-methoxy-4-(4-(2,2,2-trifluoroacetyl)-1,4-diazepan-1-yl)phenylamino)-5-(trifluoromethyl)pyrimidin-4-ylamino)phenyl)acrylamide] | > 1 µM | 0.1 to 0.5 µM | 0.1 to 0.5 µM | – | – | – | – | –
11 | C=CC(=O)Nc1cccc(Oc2nc(Nc3ccc(N4CCN(C(=O)OC)CC4)cc3OC)ncc2C(F)(F)F)c1 [Compound I-20, methyl 4-(4-(4-(3-acrylamidophenoxy)-5-(trifluoromethyl)pyrimidin-2-ylamino)-3-methoxyphenyl)piperazine-1-carboxylate] | – | – | – | – | > 1 µM | 0.1 to 0.5 µM | 0.1 to 0.5 µM | –
12 | C=CC(=O)Nc1cccc(Oc2nc(Nc3ccc(N4CCN(C(=O)CC(C)(C)C)CC4)cc3OC)ncc2Cl)c1 [Compound I-23, N-(3-(5-chloro-2-(4-(4-(3,3-dimethylbutanoyl)piperazin-1-yl)-2-methoxyphenylamino)pyrimidin-4-yloxy)phenyl)acrylamide] | > 1 µM | 0.5 to 1 µM | 0.1 to 0.5 µM | – | – | – | – | –
13 | C=CC(=O)Nc1cccc(Oc2nc(Nc3ccc(N4CCN(S(N)(=O)=O)CC4)cc3OC)ncc2C(F)(F)F)c1 [Compound I-27, N-(3-(2-(2-methoxy-4-(4-sulfamoylpiperazin-1-yl)phenylamino)-5-(trifluoromethyl)pyrimidin-4-yloxy)phenyl)acrylamide] | > 1 µM | 0.1 to 0.5 µM | 0.01 to 0.1 µM | – | – | – | – | –
14 | C=CC(=O)Nc1cccc(Nc2nc(Nc3ccc(N4CCN(C(=O)NC)CC4)cc3OC)ncc2C(F)(F)F)c1 [Compound I-28, 4-(4-(4-(3-acrylamidophenylamino)-5-(trifluoromethyl)pyrimidin-2-ylamino)-3-methoxyphenyl)-N-methylpiperazine-1-carboxamide] | > 1 µM | 0.5 to 1 µM | 0.01 to 0.1 µM | – | – | – | – | –
15 | C=CC(=O)Nc1cccc(Nc2nc(Nc3ccc(N4CCN(C(=O)OC)CC4)cc3OC)ncc2C(F)(F)F)c1 [Compound I-29, methyl 4-(4-(4-(3-acrylamidophenylamino)-5-(trifluoromethyl)pyrimidin-2-ylamino)-3-methoxyphenyl)piperazine-1-carboxylate] | > 1 µM | 0.01 to 0.1 µM | 0.01 to 0.1 µM | – | – | – | – | –
16 | C=CC(=O)Nc1cccc(Nc2nc(Nc3ccc(N4CCN(C(=O)CC)CC4)cc3OC)ncc2C(F)(F)F)c1 [Compound I-35, N-(3-(2-(2-methoxy-4-(4-propionylpiperazin-1-yl)phenylamino)-5-(trifluoromethyl)pyrimidin-4-ylamino)phenyl)acrylamide] | > 1 µM | 0.01 to 0.1 µM | 0.01 to 0.1 µM | – | – | – | – | –
17 | C=CC(=O)Nc1cccc(Oc2nc(Nc3ccc(N4CCOCC4)cc3OC(F)F)ncc2Cl)c1 [Compound I-36, N-(3-(5-chloro-2-(2-(difluoromethoxy)-4-morpholinophenylamino)pyrimidin-4-yloxy)phenyl)acrylamide] | > 1 µM | 0.1 to 0.5 µM | 0.01 to 0.1 µM | – | – | – | – | –
18 | C=CC(=O)Nc1cccc(Oc2nc(Nc3ccc(N4CCCOCC4)cc3OC)ncc2Cl)c1 [Compound I-37, N-(3-(5-chloro-2-(2-methoxy-4-(1,4-oxazepan-4-yl)phenylamino)pyrimidin-4-yloxy)phenyl)acrylamide] | > 1 µM | 0.5 to 1 µM | 0.1 to 0.5 µM | – | – | – | – | –
19 | C=CC(=O)Nc1cccc(Nc2nc(Nc3ccc(N4CCCOCC4)cc3OC)ncc2C(F)(F)F)c1 [Compound I-38, N-(3-(2-(2-methoxy-4-(1,4-oxazepan-4-yl)phenylamino)-5-(trifluoromethyl)pyrimidin-4-ylamino)phenyl)acrylamide] | > 1 µM | > 1 µM | 0.5 to 1 µM | – | – | – | – | –
20 | C=CC(=O)Nc1cccc(Oc2nc(Nc3ccc(N4CCCN(C(=O)OC(C)(C)C)CC4)cc3OC)ncc2C(F)(F)F)c1 [Compound I-39, tert-butyl 4-(4-(4-(3-acrylamidophenoxy)-5-(trifluoromethyl)pyrimidin-2-ylamino)-3-methoxyphenyl)-1,4-diazepane-1-carboxylate] | > 1 µM | > 1 µM | > 1 µM | – | – | – | – | –
21 | C=CC(=O)Nc1cccc(Nc2nc(Nc3ccc(N4CCN(C(=O)OC(C)(C)C)[C@H](C(=O)OC)C4)cc3OC)ncc2C(F)(F)F)c1 [Compound I-50, (S)-1-tert-butyl 2-methyl 4-(4-(4-(3-acrylamidophenylamino)-5-(trifluoromethyl)pyrimidin-2-ylamino)-3-methoxyphenyl)piperazine-1,2-dicarboxylate] | > 1 µM | 0.1 to 0.5 µM | 0.01 to 0.1 µM | – | – | – | – | –
22 | CCOc1cc2ncc(C#N)c(Nc3ccc(OCc4ccccn4)c(Cl)c3)c2cc1NC(=O)/C=C/CN(C)C [HKI-272, reference compound] | – | – | – | – | – | – | – | 0.004 µM

From US10434101B2, “Heterocyclic compounds and uses thereof” (Celgene CAR LLC, priority 2010, dated 2019)
